Test results reported in patent US9975902B2, “Compounds for the inhibition of cyclophilins and uses thereof” (Merck Patent GmbH, priority 2016, dated 2018).

What was measured:
CypD [1] = biological target: T1, CypD (Homo sapiens (Human), UniProt P30405); assay: SPR binding; conditions: steady state KD, read-out: SPR CypD (KDss)
From the text: Binding was confirmed on an SPR surface using a protocol adapted from Mori et al., J. Biomolecular Screening, 2009, p.

CypD [2] = biological target: T1, CypD; assay: CypD binding assay (competition fluorescence polarisation with fluorescine labelled cyclosporin)
Procedure: The binding capacity of the compounds was measured using a competition Fluorescence-Polarisation based assay with fluorescine labelled cyclosporin. The protocol used was adapted from Hausch et al, Med Chem lett 2010, p 536.

T1 sequence (P30405 30-207): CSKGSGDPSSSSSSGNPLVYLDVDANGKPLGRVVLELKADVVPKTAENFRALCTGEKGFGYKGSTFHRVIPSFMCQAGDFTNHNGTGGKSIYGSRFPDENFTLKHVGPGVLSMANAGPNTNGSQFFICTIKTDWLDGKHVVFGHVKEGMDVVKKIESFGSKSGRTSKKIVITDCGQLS

Row | SMILES | Kd (CypD [1]) | IC50 (CypD [2])
1 | Nc1ccc(C2(NC(=O)CN3C(=O)[C@@H]4[C@@H]5CC[C@@H](C5)[C@@H]4C3=O)CC2)cc1 [Compound 5, 2-endo-(3,5-Dioxo-4-aza-tricyclo[5.2.1.02,6]dec-4-yl)-N-[1-(4-amino-phenyl)-cyclopropyl]-acetamide] | 10 to 200 µM | 10 to 200 µM
2 | CCN1Cc2cc(CNC(=O)CN3C(=O)[C@@H]4[C@H]5CC[C@H](C5)[C@@H]4C3=O)ccc2NCCC1=O [Compound 6] | 10 to 200 µM | 10 to 200 µM
3 | Nc1ccc(CCNC(=O)CN2C(=O)C3CCCCC3C2=O)cc1 (stereo not drawn) [Compound 7, N-[2-(4-Amino-phenyl)-ethyl]-2-(1,3-dioxo-octahydro-isoindol-2-yl)-acetamide] | 10 to 200 µM | 10 to 200 µM
4 | Nc1ccc(CNC(=O)CN2C(=O)C3C4CCC(O4)C3C2=O)cc1 (stereo not drawn) [Compound 8, N-(4-Amino-benzyl)-2-(3,5-dioxo-10-oxa-4-aza-tricyclo[5.2.1.02,6]dec-4-yl)-acetamide] | 10 to 200 µM | 10 to 200 µM
5 | O=C(CN1C(=O)[C@@H]2[C@@H]3CC[C@@H](C3)[C@@H]2C1=O)NCCc1ccc2c(c1)CCCN2 [Compound 9, 2-endo-(3,5-Dioxo-4-aza-tricyclo[5.2.1.02,6]dec-4-yl)-N-[2-(1,2,3,4-tetrahydro-quinolin-6-yl)-ethyl]-acetamide] | 10 to 200 µM | 10 to 200 µM
6 | Nc1ccc(CCNC(=O)CN2C(=O)[C@@H]3[C@@H]4CC[C@@H](C4)[C@@H]3C2=O)cc1 [Compound 10, N-endo-[2-(4-Amino-phenyl)-ethyl]-2-(3,5-dioxo-4-aza-tricyclo[5.2.1.02,6]dec-4-yl)-acetamide] | 10 to 200 µM | 10 to 200 µM

The remaining lines, values ahead:

Row | Kd (CypD [1]) | IC50 (CypD [2]) | SMILES
7 | < 10 µM | < 10 µM | O=C(CN1C(=O)[C@@H]2[C@H]3CC[C@H](C3)[C@@H]2C1=O)NCc1ccc2c(c1)[C@H]1C[C@@H](N2)[C@H](O)CO1 [Compound 1, 2-exo-(3,5-Dioxo-4-aza-tricyclo[5.2.1.02,6]dec-4-yl)-N-((1R,9R,10S)-10-hydroxy-12-oxa-8-aza-tricyclo[7.3.1.02,7]trideca-2(7),3,5-trien-4-ylmethyl)-acetamide]
8 | < 10 µM | < 10 µM | O=C(CN1C(=O)[C@@H]2[C@@H]3CC[C@@H](C3)[C@@H]2C1=O)NCc1ccc2c(c1)[C@H]1C[C@@H](N2)[C@H](O)CO1 [Compound 3]
9 | 10 to 200 µM | 10 to 200 µM | CCC1Oc2cc(C(C)NC(=O)CN3C(=O)[C@@H]4[C@@H]5CC[C@@H](C5)[C@@H]4C3=O)ccc2NC1=O (stereo partly drawn) [Compound 11, 2-endo-(3,5-Dioxo-4-aza-tricyclo[5.2.1.02,6]dec-4-yl)-N-[1-(2-ethyl-3-oxo-3,4-dihydro-2H-benzo[1,4]oxazin-7-yl)-ethyl]-acetamide]
